The record followed here is patent US7589219B2, “2,5-bis-diamine-[1,4]benzoquinonic derivatives, useful for the treatment of alzheimer's disease, method for preparing them and intermediates of said method” (priority 2002, dated 2009).

Assay [1] concerns the target AChE (from human erythrocytes, amphiphilic form, EC 3.1.1.7) (Homo sapiens, UniProt P22303). In words: biochemical. To be noted: for Selectivity IC50(BuChE)/IC50 (AChE): ratio of the Table I IC50 values.
Assay [2] has as its target BuChE (from human serum, EC 3.1.1.8) (Homo sapiens, UniProt P06276). In words: biochemical.
Assay [3] addresses recombining human AChE (HuAChE, EC 3.1.1.7) (Homo sapiens, UniProt P22303). It counts as biochemical. To be noted: mean of two independent measurements in triplicate.
Assay [4] has as its target aggregation of Aβ (1-40) induced by AChE (recombining human, EC 3.1.1.7) (Homo sapiens, UniProt P22303). As to the kind of experiment: biochemical. It counts as biochemical.
The subject of assay [5] is anti-NGF transgenic mice (AD11). In words: Immunohistochemistry and neurostereology in anti-NGF transgenic mice (AD11). It counts as in vivo, mouse. To be noted: for extracellular deposition of APP: 6 month-old AD11 mice (FIG. 19); for cholinergic deficit in the basal forebrain (number of cholinergic neurons): AD11 mice from 6 months of age for 15 days (FIG. 16); for number of cells accumulating β-amyloid protein in the hippocampus: treatment starting at 6 months of age (FIG. 20).

Assay [6] relates to non transgenic mice treated with scopolamine. In words: Object recognition test, amnesia induced by scopolamine in non transgenic mice. It counts as in vivo, mouse. To be noted: per os 15 mg/kg 20 min before scopolamine 0.5 mg/kg s.c. (FIG. 14).
In assay [7] the target is AChE, from human erythrocytes EC 3.1.1.7 (Homo sapiens, UniProt P22303). It counts as biochemical.
Assay [8] can be described thus: Total antioxidant status (Randox kit, modified), capture of oxygen radicals, ABTS colorimetric method. It counts as biochemical. To be noted: for % inhibition (antioxidant activity): absorbance 600 nm, 3 min, pH 7.4, 37° C.
Another assay concerns AD11 mice. In words: Object recognition test in AD11 mice. It counts as in vivo, mouse.
The mark [9] stands for this setting: AChE from human erythrocytes, Ellman's method, Table I, read-out: IC50(AChE).
The mark [10] stands for this setting: BuChE from human serum, Ellman's method, Table I, read-out: IC50 (BuChE).
The mark [11] stands for this setting: BuChE from human serum, Example 50 table, mean of two independent measurements in triplicate, read-out: IC50 (BuChE).
Setting [12] is: AD11 mice, 15 days starting at 6 months of age (FIG. 18).
[13] abbreviates: AD11 mice, daily from 1.5 months until 2 months of age, per os or intraperitoneal, comparison of AChE inhibitors (FIG. 15).
Where [14] appears, read: AD11 mice aged 15 months, per os 7 mg/kg/day for 1 month, versus placebo (FIG. 11).

Entries after “also recorded” stand apart in the source; their conditions may differ. Like-named read-outs stand apart in the source and are kept apart here.

Sequence of recombining human AChE (HuAChE, EC 3.1.1.7) (P22303 32-614): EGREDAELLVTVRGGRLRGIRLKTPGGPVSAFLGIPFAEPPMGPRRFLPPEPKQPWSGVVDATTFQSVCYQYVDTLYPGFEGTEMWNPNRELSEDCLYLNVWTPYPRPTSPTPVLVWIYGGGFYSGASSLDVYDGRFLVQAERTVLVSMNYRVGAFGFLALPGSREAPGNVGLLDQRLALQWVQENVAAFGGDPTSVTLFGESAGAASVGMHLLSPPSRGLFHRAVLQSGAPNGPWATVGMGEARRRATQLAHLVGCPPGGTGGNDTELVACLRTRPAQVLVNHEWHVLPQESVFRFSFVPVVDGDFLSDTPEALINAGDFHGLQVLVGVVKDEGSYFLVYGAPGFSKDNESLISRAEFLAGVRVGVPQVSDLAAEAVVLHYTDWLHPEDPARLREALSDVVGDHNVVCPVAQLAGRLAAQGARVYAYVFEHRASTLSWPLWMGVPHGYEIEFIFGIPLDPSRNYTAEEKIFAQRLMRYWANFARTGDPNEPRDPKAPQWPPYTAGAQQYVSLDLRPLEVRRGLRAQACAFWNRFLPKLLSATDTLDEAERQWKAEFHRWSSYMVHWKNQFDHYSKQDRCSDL
Sequence of BuChE (from human serum, EC 3.1.1.8) (P06276 29-602): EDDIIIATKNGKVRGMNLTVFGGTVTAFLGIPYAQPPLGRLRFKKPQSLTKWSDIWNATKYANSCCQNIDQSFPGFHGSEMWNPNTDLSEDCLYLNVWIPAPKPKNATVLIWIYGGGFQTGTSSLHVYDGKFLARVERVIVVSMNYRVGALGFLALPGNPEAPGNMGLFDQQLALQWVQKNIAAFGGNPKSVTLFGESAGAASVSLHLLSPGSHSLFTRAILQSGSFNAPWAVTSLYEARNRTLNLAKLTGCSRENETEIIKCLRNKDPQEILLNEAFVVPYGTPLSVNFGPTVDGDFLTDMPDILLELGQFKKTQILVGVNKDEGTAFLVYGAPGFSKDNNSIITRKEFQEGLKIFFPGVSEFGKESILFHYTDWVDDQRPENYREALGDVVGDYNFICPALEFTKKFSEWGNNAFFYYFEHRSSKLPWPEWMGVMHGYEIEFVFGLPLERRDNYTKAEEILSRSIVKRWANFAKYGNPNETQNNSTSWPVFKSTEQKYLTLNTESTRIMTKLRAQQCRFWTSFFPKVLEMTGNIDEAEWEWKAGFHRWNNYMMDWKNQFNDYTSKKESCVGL
Sequence of AChE (from human erythrocytes, amphiphilic form, EC 3.1.1.7) (P22303 32-617 isoform P22303-2 limits assumed): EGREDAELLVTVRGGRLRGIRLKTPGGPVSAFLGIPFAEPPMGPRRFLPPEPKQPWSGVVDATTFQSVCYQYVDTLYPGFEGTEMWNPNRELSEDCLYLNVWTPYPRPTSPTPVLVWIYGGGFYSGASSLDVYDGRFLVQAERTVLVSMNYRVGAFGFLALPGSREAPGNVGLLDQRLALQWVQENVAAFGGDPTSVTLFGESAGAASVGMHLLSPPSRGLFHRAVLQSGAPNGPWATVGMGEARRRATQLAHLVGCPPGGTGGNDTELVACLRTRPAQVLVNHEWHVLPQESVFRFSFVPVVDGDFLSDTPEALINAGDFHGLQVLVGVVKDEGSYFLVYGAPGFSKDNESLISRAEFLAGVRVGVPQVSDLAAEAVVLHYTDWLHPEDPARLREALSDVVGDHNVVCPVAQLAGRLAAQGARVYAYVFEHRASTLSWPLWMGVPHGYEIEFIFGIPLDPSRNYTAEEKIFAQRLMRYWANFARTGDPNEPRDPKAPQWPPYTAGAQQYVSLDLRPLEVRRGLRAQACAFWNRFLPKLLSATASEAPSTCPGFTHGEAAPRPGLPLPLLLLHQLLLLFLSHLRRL
Sequence of aggregation of Aβ (1-40) induced by AChE (recombining human, EC 3.1.1.7) (P22303 32-614): as the sequence (P22303 32-614) above
Sequence of AChE, from human erythrocytes EC 3.1.1.7 (P22303 32-617 isoform P22303-2 limits assumed): as the sequence (P22303 32-617 isoform P22303-2 limits assumed) above

With `CCN(CCCNC1=CC(=O)C(NCCCN(CC)Cc2ccccc2OC)=CC1=O)Cc1ccccc1OC` [XII, 2,5-Bis-{3-[ethyl-(2-methoxy-benzyl)-amino]-propylamino}-[1,4]benzoquinone], the IC50 in [1] (setting [9]) is 3.19 ± 0.15 nM; in assay [1] (approximate, corresponds to the Table I IC50, read-out: pIC50(AChE) (converted)) it was approximately 3.24 nM; in assay [2] (setting [10]), 4490 ± 340 nM; in assay [3] it was 2.25 ± 0.21 nM. Also, the “Selectivity IC50(BuChE)/IC50 (AChE)” value in [1] was 1407. Further, the inhibition at 100 µM in assay [4] (concentration of 100 μM) is approximately 90%.

For the molecule `CCN(CCCCCCNC1=CC(=O)C(NCCCCCCN(CC)Cc2ccccc2Cl)=CC1=O)Cc1ccccc1Cl` [XVIII, 2,5-Bis-{6-[ethyl-(2-chloro-benzyl)-amino]-hexylamino}-[1,4]benzoquinone], the IC50 in [2] (setting [11]) turned out to be 45100 ± 1000 nM; in assay [3], 593 ± 51 nM.

Turning to `COc1ccccc1CN(C)CCCCCC(=O)N(C)CCCCCCCCN(C)C(=O)CCCCCN(C)Cc1ccccc1OC` [Caproctamine, reference compound], in [5], the “extracellular deposition of APP” value is reported as “ineffective” and the “cholinergic deficit in the basal forebrain (number of cholinergic neurons)” value is listed as “had no effect on the number of cholinergic neurons”. The “number of neurons labelled with antibodies against phospho-tau (entorhinal cortex)” value in [5] (setting [12]) is reported as “ineffective”. Moreover, the “number of cells accumulating β-amyloid protein in the hippocampus” value in [5] (AD11 mice) is “ineffective”.

Consider `CCN(CCCCCCNC1=C(C)C(=O)C(NCCCCCCN(CC)Cc2ccccc2OC)=C(C)C1=O)Cc1ccccc1OC` [LV, 2,5-bis-{6-[ethyl-(2-methoxy-benzyl)-amino]-hexylamino}-3,6-dimethyl-[1,4]-benzoquinone], for which the IC50 is 462 ± 2 nM in [2] (setting [11]) and 9.5 ± 0.23 nM in [3].

Turning to `COc1ccccc1CN(C)CCCCCCNC1=CC(=O)C(NCCCCCCN(C)Cc2ccccc2OC)=CC1=O` [LIV, 2,5-bis-{6-[(2-methoxy-benzyl)-methylamino]-hexylamino}-[1,4]-benzoquinone], the IC50 is 5110 ± 410 nM in assay [2] (setting [11]) and 77.8 ± 4.3 nM in assay [3].

In the case of `Nc1c2c(nc3ccccc13)CCCC2` [Tacrine, reference compound], the “number of cholinergic neurons in the basal forebrain” value in assay [5] (setting [13]) is listed as “aggravated the cholinergic deficit”.

Take `CCN(CCCCCCNC1=CC(=O)C(NCCCCCCN(CC)Cc2ccccc2OC)=CC1=O)Cc1ccccc1OC` [Compound XVI, 2,5-Bis-{6-[ethyl-(2-methoxy-benzyl)-amino]-hexylamino}-[1,4]benzoquinone]: the IC50 in assay [1] (setting [9]) is 2.39 ± 0.14 nM; in [2] (setting [10]), 1440 ± 100 nM; in assay [2] (setting [11]) it was 1440 ± 100 nM; in assay [2] (approximate, corresponds to the Table I IC50, read-out: pIC50(BChE) (converted)), approximately 1450 nM; in assay [3], 1.55 ± 0.11 nM; in [4] (read-out: concentration able to reduce the signal of fluorescence by 50% (IC50, AChE-induced Aβ aggregation), Aβ 230 μM, AChE 2.3 μM, thioflavine T fluorescence) it was 28300 ± 300 nM. For the same molecule, the “Selectivity IC50(BuChE)/IC50 (AChE)” value in [1] stood at 602. The “amnesia induced by scopolamine, object recognition test” value in assay [6] is reported as “did not show any signs of amnesia”. In assay [7] (Lineweaver-Burk analysis (FIG. 1)), the type of inhibition result is on record as “competitive inhibitor of a mixed type”. The inhibitory constant (Ki) in assay [7] (acetylthiocholine 111-550 μM, Lineweaver-Burk, intercept of the gradient plot) amounted to 2.6 nM. The “% inhibition (antioxidant activity)” value in assay [8] (concentration 170 μM, with human serum albumin 25 μM) was 44.1 ± 3.7%. Moreover, in [8] (oxidated quinonic form tested), the “antioxidant power, times lower than Trolox” value was “about 6 times”. The “extracellular deposition of APP” value in [5] is on record as “reduced the extracellular deposition of APP”. Besides, the “number of cholinergic neurons in the basal forebrain” value in assay [5] (AD11 mice aged 15 months, per os 7 mg/kg/day for 1 month (FIG. 9)) was “improvement in the number of cholinergic neurons”; in assay [5] (setting [13]) it was “prevented the decrease of the number of cholinergic neurons”. Besides, the “intracellular accumulation of hyperphosphorylated tau” value in assay [5] (AD11 mice aged 15 months, per os 7 mg/kg/day for 1 month, versus placebo (FIG. 10)) was “decreased”. In assay [5] (setting [14]), the “number of cells associated with plaques” value is “lower than that in placebo-treated mice”. In assay [5] (setting [14]), the “number of β-amyloid plaques” value is recorded as “decrease in the number of β-amyloid plaques”. In addition, the “cholinergic deficit in the basal forebrain (number of cholinergic neurons)” value in assay [5] is “able to rescue the cholinergic deficit”. Besides, the “APP deposition in the cerebral vessels” value in assay [5] (AD11 mice of 2 months, 7 mg/kg intraperitoneal daily for 15 days (FIG. 7)) is “able to reduce markedly the cerebrovascular deposition of APP”. In addition, in assay [5] (AD11 mice of 2 months, 7 mg/kg intraperitoneal daily for 15 days (FIG. 8)), the “tau hyperphosphorylation in the cortex” value is “partly prevented”. Also, in [5] (AD11 mice, 7 mg/kg intraperitoneal daily for 15 days from age 1.5 to 2 months (FIG. 6)), the “cholinergic neurons in the basal nucleus of Meynert” value is “efficacious in preventing the loss of cholinergic neurons”. For the same molecule, the “ChAT positive cholinergic neurons in the basal forebrain” value in [5] (AD11 mice, 7 mg/kg intraperitoneal daily for 15 days from age 1.5 to 2 months (FIGS. 4, 5)) is reported as “able to prevent the cholinergic deficit in the basal forebrain”. Besides, the “number of neurons labelled with antibodies against phospho-tau (entorhinal cortex)” value in [5] (AD11 mice, 15 days starting at 1.5 months of age (FIG. 17)) is recorded as “reduced the number of neurons labelled with antibodies against phospho-tau”; in assay [5] (setting [12]), “reduced the number of neurons labelled with antibodies against phospho-tau”. Moreover, the “number of cells accumulating β-amyloid protein in the hippocampus” value in [5] (AD11 mice) is recorded as “able to reduce the number of cells accumulating β-amyloid protein”. Moreover, the “behavioural deficit, object recognition test (discrimination index)” value with AD11 mice (AD11 mice at 6 months, 15 mg/kg/day per os for 15 days (FIGS. 12, 21), 15 mg/kg/day) is reported as “improvement of the deficit; also recorded: marked amelioration of the behavioural deficit”; in the assay on AD11 mice (AD11 mice at 12 months, 15 mg/kg/day per os for 15 days (FIG. 13)), “improvement of the deficit”.

On to `CCN(CCCCCCNC1=CC(=O)C(NCCCCCCN(CC)Cc2cccc(OC)c2)=CC1=O)Cc1cccc(OC)c1` [XXXIII, 2,5-bis-{6-[ethyl-(3-methoxy-benzyl)-amino]-hexylamino}-[1,4]benzoquinone], for which the IC50 in assay [2] (setting [11]) is 2170 ± 70 nM; in assay [3], 13.8 ± 1.7 nM.

`CCN(CCCCCCCNC1=CC(=O)C(NCCCCCCCN(CC)Cc2ccccc2OC)=CC1=O)Cc1ccccc1OC` [IL, 2,5-bis-{7-[ethyl-(2-methoxy-benzyl)-amino]-heptylamino}-[1,4]benzoquinone]: the IC50 worked out at 1250 ± 250 nM in assay [2] (setting [11]) and 7.79 ± 0.37 nM in assay [3].

For `CCN(CCCCCCNC1=CC(=O)C(NCCCCCCN(CC)Cc2ccc(OC)cc2)=CC1=O)Cc1ccc(OC)cc1` [XXXVII, 2,5-bis-{6-[ethyl-(4-methoxy-benzyl)-amino]-hexylamino}-[1,4]benzoquinone], the figures for the IC50 in assay [2] (setting [11]) and in [3] were 2420 ± 940 nM and 51.1 ± 1 nM, respectively.

For `CCN(CCNC1=CC(=O)C(NCCN(CC)Cc2ccccc2OC)=CC1=O)Cc1ccccc1OC` [XLV, 2,5-bis-{2-[ethyl-(2-methoxy-benzyl)-amino]-ethylamino}-[1,4]benzoquinone], the IC50 in assay [2] (setting [11]) was 16800 ± 1100 nM; in assay [3], 61.5 ± 1.3 nM.

As to `CCN(CCCCCCNC1=CC(=O)C(NCCCCCCN(CC)Cc2ccccc2[N+](=O)[O-])=CC1=O)Cc1ccccc1[N+](=O)[O-]` [XXIX, 2,5-bis-{6-[ethyl-(2-nitro-benzyl)-amino]-hexylamino}-[1,4]benzoquinone], the IC50 came out at 36500 ± 8800 nM in [2] and 2310 ± 130 nM in [3].

Turning to `CCN(CCCCCCNC1=CC(=O)C(NCCCCCCN(CC)Cc2ccco2)=CC1=O)Cc1ccco1` [XLI, 2,5-bis-[6-(ethyl-furan-2-ilmethyl-amino)-hexylamino]-[1,4]benzoquinone], the IC50 in assay [2] (setting [11]) amounted to 3510 ± 180 nM; in assay [3] it was 144 ± 3 nM.

`COc1ccccc1CNCCCCCCNC1=CC(=O)C(NCCCCCCNCc2ccccc2OC)=CC1=O` [LI, 2,5-bis-[6-(2-methoxy-benzylamino)-hexylamino]-[1,4]-benzoquinone]: the values for the IC50 in [2] (setting [11]) and in [3] were 3230 ± 150 nM and 123 ± 20 nM, respectively.

As for `Cc1c(C)c2c(c(C)c1O)CCC(C)(C(=O)O)O2` (centres unmarked) [Trolox, 6-hydroxy-2,5,7,8-tetramethylchroman-2-carboxylic acid, reference compound], the “% inhibition (antioxidant activity)” value in assay [8] (concentration 27 μM) is 57.6 ± 0.9%.

For the molecule `CCN(CCCCCCNC1=CC(=O)C(NCCCCCCN(CC)Cc2ccccc2)=CC1=O)Cc1ccccc1` [XVII, 2,5-Bis-[6-(benzyl-ethyl-amino)-hexylamino]-[1,4]benzoquinone], the IC50 was 645 ± 33 nM in [2] (setting [11]) and 73.3 ± 3.2 nM in assay [3].

As a reminder, the inhibition is the relative decrease from the control value, in per cent. By Ki is commonly meant a dissociation constant, usually derived from enzyme kinetics or from competition with a known ligand.
